Legend:
Dopaminergic D5 = Dopaminergic D5 (Homo sapiens, UniProt P21918); assay: CNS receptor binding assay, D5; settings: MAP4343 10 µM; [^3H] SCH 23390; Human recombinant (GH4 cells); read-out: % Inhibition of control specific binding
Protocol: (§1) MAP4343 has been screened for in vitro affinity to 80 different CNS neurotransmitters receptors using various validated binding assays.
(§2) Table 4. In vitro affinity of MAP4343 (10 µM) for CNS neurotransmitter receptors associated with side effects and/or abuse liability. Data are the average of two individual assays for each receptor and are expressed as % inhibition of the control specific binding of the reference compound. Results showing an inhibition higher than 50% are considered to represent significant effects of the test compound.

Cannabinoid CB1 = Cannabinoid CB1 (Homo sapiens, UniProt P21554); assay: CNS receptor binding assay, CB1; settings: MAP4343 10 µM; [^3H] CP 55940; Human recombinant (CHO cells); read-out: % Inhibition of control specific binding
Cannabinoid CB1, sequence (P21554 whole entry): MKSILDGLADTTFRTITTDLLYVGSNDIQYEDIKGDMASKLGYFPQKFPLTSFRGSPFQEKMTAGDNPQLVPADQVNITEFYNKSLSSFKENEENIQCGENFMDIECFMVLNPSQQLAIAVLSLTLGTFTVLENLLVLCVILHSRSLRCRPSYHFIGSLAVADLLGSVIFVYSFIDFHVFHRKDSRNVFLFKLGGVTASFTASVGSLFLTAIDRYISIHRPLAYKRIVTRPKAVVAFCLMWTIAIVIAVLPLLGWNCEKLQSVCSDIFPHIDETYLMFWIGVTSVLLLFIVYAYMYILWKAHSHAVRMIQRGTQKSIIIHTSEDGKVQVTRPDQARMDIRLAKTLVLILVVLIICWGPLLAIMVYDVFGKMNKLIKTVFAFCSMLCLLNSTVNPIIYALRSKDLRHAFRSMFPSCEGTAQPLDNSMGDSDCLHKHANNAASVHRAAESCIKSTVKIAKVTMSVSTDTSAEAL
Protocol: as §1, §2

[1] = target: T1, Muscarinic (Cholinergic) M3 (Homo sapiens, UniProt P20309); assay: CNS receptor binding assay, M3; settings: MAP4343 10 µM; [^3H] 4-DAMP; Human recombinant (CHO cells); read-out: % Inhibition of control specific binding
T1 construct: expressed in transfected cells; host or cells: CHO cells
T1 sequence (P20309 whole entry): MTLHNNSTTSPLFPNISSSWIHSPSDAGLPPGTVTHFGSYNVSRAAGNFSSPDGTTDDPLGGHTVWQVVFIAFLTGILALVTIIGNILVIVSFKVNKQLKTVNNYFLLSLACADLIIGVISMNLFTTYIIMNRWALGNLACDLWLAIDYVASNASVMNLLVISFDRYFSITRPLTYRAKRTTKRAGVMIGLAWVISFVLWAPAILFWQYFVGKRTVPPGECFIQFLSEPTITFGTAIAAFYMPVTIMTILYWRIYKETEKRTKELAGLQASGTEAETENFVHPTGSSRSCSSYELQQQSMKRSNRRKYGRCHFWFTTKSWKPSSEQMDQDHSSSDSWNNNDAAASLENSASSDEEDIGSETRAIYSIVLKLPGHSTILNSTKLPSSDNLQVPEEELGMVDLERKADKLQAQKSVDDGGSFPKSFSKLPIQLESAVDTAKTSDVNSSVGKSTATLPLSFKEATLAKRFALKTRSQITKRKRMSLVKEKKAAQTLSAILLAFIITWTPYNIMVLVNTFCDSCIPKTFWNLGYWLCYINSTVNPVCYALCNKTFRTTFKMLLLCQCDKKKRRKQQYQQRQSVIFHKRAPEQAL
Protocol: as §1, §2

Noradrenergic β1 = Noradrenergic β1 (Homo sapiens, UniProt P08588); assay: CNS receptor binding assay, β1; settings: MAP4343 10 µM; [^3H] (-) CGP 12177; Human recombinant (HEK-293 cells); read-out: % Inhibition of control specific binding
Noradrenergic β1, sequence (P08588 whole entry): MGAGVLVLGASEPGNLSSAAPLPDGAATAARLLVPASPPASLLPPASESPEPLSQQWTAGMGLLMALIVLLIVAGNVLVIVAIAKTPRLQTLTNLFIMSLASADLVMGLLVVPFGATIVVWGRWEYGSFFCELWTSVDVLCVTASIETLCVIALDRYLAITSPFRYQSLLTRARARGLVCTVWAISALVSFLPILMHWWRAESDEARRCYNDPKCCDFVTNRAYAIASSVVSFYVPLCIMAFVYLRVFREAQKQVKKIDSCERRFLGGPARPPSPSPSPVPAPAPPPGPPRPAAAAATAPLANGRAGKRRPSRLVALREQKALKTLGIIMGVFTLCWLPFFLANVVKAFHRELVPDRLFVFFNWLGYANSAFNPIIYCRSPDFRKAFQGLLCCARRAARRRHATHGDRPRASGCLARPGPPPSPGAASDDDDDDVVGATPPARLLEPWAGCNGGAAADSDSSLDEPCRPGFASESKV
Protocol: as §1, §2

Wistar Kyoto (WKY) rats [2] = assay: Forced swimming test (FST), WKY rats; assay type: in vivo, rat; settings: dose-ranging, MAP4343 15 mg/kg, Fig. 6B
Protocol: 3B-methoxy-PREG (also referred to as "MAP4343" in Example 4) was dissolved in sesame oil by sonication using a Sonifer-450 (Branson Ultrasonics Corporation, Danbury, USA) during 1 cycle of 5 pulses in sesame oil. Fluoxetine (Biotrend, Köln, Germany) and Ketamine (Sigma-Aldrich, St-Quentin Fallvier, France) were dissolved in sterile saline solution (NaCl 0.9%). The drug formulations were prepared freshly each day of treatment. MAP4343 was administered subcutaneously (ranging of 1-15 mg/Kg/day) while fluoxetine and ketamine were injected intraperitonealy (10 mg/Kg/day and 30 mg/Kg/day, respectively).
After a 6-day period of acclimatization, all experimental groups received daily successive subcutaneous (250 µl per rat) and intraperitoneal (1 ml/kg) injections. […]
Rats were submitted to the forced swimming test (FST), according the procedure initially described by (Detke et al., 1995) and slightly modified by (Bianchi et al., 2002). […] The pre-test and test sessions were recorded using a video camera placed above the cylinder for subsequent behavioral analysis. The immobility time (in sec) was blindly measured by two independent experimenters from recorded videos. […]
The effects of a dose-ranging administration of MAP4343 were tested in WI and WKY rats on their immobility time measured in FST.

Wistar Kyoto (WKY) rats [3] = assay: Locomotor activity in the open-field arena, WKY rats; assay type: in vivo, rat; settings: acute, MAP4343 10 mg/kg s.c., fluoxetine 10 mg/kg i.p., ketamine 30 mg/kg i.p., 3 min, Fig. 5A
Protocol: After a 6-day period of acclimatization, all experimental groups received daily successive subcutaneous (250 µl per rat) and intraperitoneal (1 ml/kg) injections. WI rats received injection of vehicle (sesame oil + saline) while WKY rats were randomly assigned to […], as follow: KWY rats receiving only vehicle (sesame oil + saline) and WKY rats treated with MAP4343 (10 mg/kg, s.c.; rats received in parallel i.p. injections of saline), fluoxetine (10 mg/kg i.p., rats received in parallel s.c. injections of sesame oil) or ketamine (30 mg/kg, i.p.; rats received in parallel s.c. injections of sesame oil) (see Figure 3).
After, a 6-day period of acclimatization, the acute phase of treatment started for 4 days during behavioral tests were performed (Figure 3). All animals were injected 1h30 before the starting of behavioral test.
The animals were individually placed in the open field arena (OFA) (70 x 100 x 70 cm), with a central square (35 x 50 cm), located in a 50 lux illuminated room and videotaped during 3 min using a computerized system (VideoTrack V2.5, ViewPoint, Lyon, France).
OFA allows firstly the evaluation of total locomotor activity (LMA) thereby measuring the total distance travelled in the arena (in cm). Secondly, measurements of the activity in the center of the arena like (i) the number of entries in the center of arena and (ii) the total time spent in the center of arena (in sec) provide cues of anxiety-like behavior (Prut and Belzung, 2003). All these behavioral parameters were instantaneously measured automatically with the VideoTrack V2.5 software from the videos.

[4] = test system: 80 different CNS neurotransmitters receptors; assay: Screen for in vitro affinity to 80 CNS neurotransmitter receptors; assay type: binding; settings: MAP4343 10 µM; inhibition higher than 50% considered significant
Protocol: as §1, §2

Dopaminergic D5, sequence (P21918 whole entry): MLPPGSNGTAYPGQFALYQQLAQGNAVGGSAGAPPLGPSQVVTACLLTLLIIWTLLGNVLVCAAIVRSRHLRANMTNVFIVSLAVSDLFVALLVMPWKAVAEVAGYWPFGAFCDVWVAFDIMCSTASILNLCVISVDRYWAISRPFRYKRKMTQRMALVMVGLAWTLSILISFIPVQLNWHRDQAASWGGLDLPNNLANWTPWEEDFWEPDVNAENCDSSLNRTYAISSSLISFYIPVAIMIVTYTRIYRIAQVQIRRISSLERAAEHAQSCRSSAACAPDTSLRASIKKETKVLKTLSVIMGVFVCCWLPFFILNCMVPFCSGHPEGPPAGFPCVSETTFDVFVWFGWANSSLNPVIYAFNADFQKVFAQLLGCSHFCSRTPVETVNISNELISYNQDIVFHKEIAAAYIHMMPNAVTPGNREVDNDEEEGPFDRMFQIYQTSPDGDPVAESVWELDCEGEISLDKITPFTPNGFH

Compound `CO[C@H]1CC[C@@]2(C)C(=CC[C@H]3[C@@H]4CC[C@H](C(C)=O)[C@@]4(C)CC[C@@H]32)C1` (stereo in doubt) [MAP4343, 3β-methoxy-pregna-5-ene-20-one] has an inhibition at 10 µM (Dopaminergic D5) of -7%, an inhibition at 10 µM (Cannabinoid CB1) of 12% and an inhibition at 10 µM [1] of 3%. For the same compound, the inhibition at 10 µM (Noradrenergic β1) was 1%, the “immobility time measured in FST, change as compared to WKY receiving vehicle alone” value (Wistar Kyoto (WKY) rats [2]) was -25% and the “locomotor activity (total distance travelled in the open-field arena), change as compared to WKY receiving vehicle” value (Wistar Kyoto (WKY) rats [3]) was “did not modify significantly”. For the same compound, the “in vitro affinity for tested receptors” value [4] was “no significant affinity for any tested receptor”.
